Source: patent US6372209B1, “Vaginal lactobacillus medicant” (Gyne Logix, Inc., priority 1997, dated 2002)

Tests used:
[1] = tested on: women who had bacterial vaginosis; experiment: Suppository as treatment for bacterial vaginosis; type: in vivo, human
From the text: In this study, 13 women who had bacterial vaginosis were given Lactobacillus crispatus CTV-05 suppositories twice daily for seven days. The purpose of this study was to evaluate whether Lactobacillus suppositories could be used as a treatment for bacterial vaginosis. Only 1 of 10 women who returned for follow-up was cured of bacterial vaginosis at the one week follow-up visit.

[2] = tested on: vaginal epithelial cells (VECs); experiment: In vitro adherence to vaginal epithelial cells (frozen VECs, McIlvaine's buffer pH 4.5, Gram stain count); type: cell-based, human; conditions: for average adherence value: 8 VEC donors
Experimental: (1.2) Adherence to vaginal epithelial cells (VECs): Immediately after sampling, vaginal epithelial cells were transferred to MEM tissue culture medium, pH 7.2, washed 3 times in a syringe and passed through a 8μ filter (Millipore) which retains vaginal cells but passes bacteria. A total of 10^5 washed vaginal cells were added to a suspension of 10^9 Lactobacilli/ml (enumerated with a counting chamber) and incubated for 2.5 hours at 37° C. After washing and filtering to remove unattached Lactobacilli, the vaginal cells were stained using Gram stain. The number of Lactobacilli that adhered to the epithelial cells was counted and recorded using a light microscope equipped with a camera. Both the mean number of Lactobacilli cells adhered per VEC (average adherence value) and the percent VEC cohesion value, as described above, were calculated. The percent VEC cohesion value, defined as the percentage of VECs to which at least one Lactobacillus cell is adhered of the total number of VECs in an identified group, was used to determine whether a particular strain would be selected as having a desirable adherence characteristic. Since ongoing adherence studies required a constant supply of vaginal epithelial cells, the vaginal epithelial cells were pre-washed and stored at −70° C. until time of use.
Table 1 and Table 2 show the in vitro adherence studies using frozen VECs from donors representing the most prevalent ABO blood types. […] Strain CTV-05 (Lot LB-022) was preserved in suppository format as described in detail in Example 3. Suppositories were stored at both room (RT) and refrigerator (Ref.) temperatures for 5.5 months prior to testing. It is important to note that the cells of strain CTV-05 used in these studies were not in an actively growing metabolic state. Rather, a suppository containing CTV-05 was placed directly into McIlvaine's buffer (pH 4.5) without pregrowing the microbial cells to an active state. The cells were then directly added to VECs. Results are shown as (1) the logarithmic mean adherence of CTV-05 per 50 VECs (X ±1 standard deviation), (2) as the actual range of adhered CTV-05 per VEC in a total count of 50 VECs, and (3) as the percent VEC cohesion value (% VEC ADH). The description of terms in Table 1 is as follows: ^1X±STD=logarithmic mean adherence of LAB per 50 VEC, +1 standard deviation; ^2 Range=actual range of adhered LAB per VEC in a total count of 50 VECs; ^3% VEC ADH=percent of 50 VECs showing adherence of LAB strain CTV-05, Lot LB-022, stored for 5.5 months at refrigerated (Ref.) and/or room temperature (RT); and *Nursing Mother.
The buffer was then added directly to previously frozen VECs from human donors. Actively growing CTV-05 was also added to previously frozen VECs.

women = experiment: Pooled clinical trials with the CTV-05 suppository (Examples 5-7); type: in vivo, human
From the text: The studies presented in Examples 5 6, and 7 have shown that the Lactobacilli of the present invention can be used in a suppository to recolonize the vagina with Lactobacilli. Over fifty women have been included in clinical trials with the Lactobacillus crispatus CTV-05 suppository. […] Furthermore, the present inventors have developed fingerprinting methods which allow the identification of the suppository strain of L. crispatus in human trials.

[3] = Active LAB, donor A+, cycle day 3, Gram stain score 4
[4] = Active LAB, donor A+, cycle day 17, Gram stain score 9
[5] = Active LAB, donor A+, cycle day 37, Gram stain score 8
[6] = Active LAB, donor AB+, cycle day 24, Gram stain score 4
[7] = Active LAB, donor A−, cycle day 8 mos., Gram stain score 4
[8] = Active LAB, donor B+, cycle day 13, Gram stain score 9
[9] = Active LAB, donor O+, cycle day 7, Gram stain score 2
[10] = Active LAB, donor O+, cycle day 7, Gram stain score 4
[11] = Active LAB, donor O+, cycle day 15, Gram stain score 2
[12] = Active LAB, donor O+, cycle day 20, Gram stain score 6
[13] = Active LAB, frozen VECs, 10 donors
[14] = Inactive LAB, Agar, donor A+, cycle day 3, Gram stain score 4
[15] = Inactive LAB, Agar, donor A+, cycle day 37, Gram stain score 8
[16] = Inactive LAB, Agar, donor AB+, cycle day 24, Gram stain score 4
[17] = Inactive LAB, Agar, donor B+, cycle day 13, Gram stain score 9
[18] = Inactive LAB, Agar, donor O+, cycle day 7, Gram stain score 2
[19] = Inactive LAB, Agar, donor O+, cycle day 15, Gram stain score 2
[20] = Inactive LAB, Agar, donor O+, cycle day 20, Gram stain score 6
[21] = Inactive LAB, Agar, frozen VECs
[22] = Inactive LAB, Broth, donor A+, cycle day 3, Gram stain score 4
[23] = Inactive LAB, Broth, donor A+, cycle day 17, Gram stain score 9
[24] = Inactive LAB, Broth, donor A+, cycle day 37, Gram stain score 8
[25] = Inactive LAB, Broth, donor AB+, cycle day 24, Gram stain score 4
[26] = Inactive LAB, Broth, donor A−, cycle day 8 mos., Gram stain score 4
[27] = Inactive LAB, Broth, donor B+, cycle day 13, Gram stain score 9
[28] = Inactive LAB, Broth, donor O+, cycle day 7, Gram stain score 2
[29] = Inactive LAB, Broth, donor O+, cycle day 7, Gram stain score 4
[30] = Inactive LAB, Broth, donor O+, cycle day 15, Gram stain score 2
[31] = Inactive LAB, Broth, donor O+, cycle day 20, Gram stain score 6
[32] = Inactive LAB, Broth, frozen VECs, 10 donors

Lactobacillus crispatus CTV-05
women successfully colonized by the suppository strain ([1]; suppositories twice daily for seven days, follow-up): 7 of the 10
women cured of bacterial vaginosis ([1]; suppositories twice daily for seven days, one week follow-up visit): 1 of 10
side-effects ([1]; twice daily for seven days): None of the women experienced any side-effects
visual or microscopic evidence of inflammation ([1]; twice daily for seven days): none had either visual or microscopic evidence of inflammation
% VEC ADH [2, 3]: 94%
X ± 1 STD (logarithmic mean adherence of LAB per 50 VEC) [2, 3]: 17.7 ± 3.2
% VEC ADH [2, 4]: 66%
X ± 1 STD (logarithmic mean adherence of LAB per 50 VEC) [2, 4]: 13.0 ± 5.0
% VEC ADH [2, 5]: 94%
Range (adhered LAB per VEC) [2, 5]: 0-133 LAB per VEC
X ± 1 STD (logarithmic mean adherence of LAB per 50 VEC) [2, 5]: 8.5 ± 3.3
% VEC ADH [2, 6]: 70%
Range (adhered LAB per VEC) [2, 6]: 0-109 LAB per VEC
X ± 1 STD (logarithmic mean adherence of LAB per 50 VEC) [2, 6]: 5.1 ± 3.4
% VEC ADH [2, 7]: 96%
X ± 1 STD (logarithmic mean adherence of LAB per 50 VEC) [2, 7]: 52.1 ± 3.6
% VEC ADH [2, 8]: 68%
Range (adhered LAB per VEC) [2, 8]: 0-61 LAB per VEC
X ± 1 STD (logarithmic mean adherence of LAB per 50 VEC) [2, 8]: 5.7 ± 3.3
% VEC ADH [2, 9]: 94%
X ± 1 STD (logarithmic mean adherence of LAB per 50 VEC) [2, 9]: 51.9 ± 3.0
% VEC ADH [2, 10]: 92%
X ± 1 STD (logarithmic mean adherence of LAB per 50 VEC) [2, 10]: 36.3 ± 2.7
% VEC ADH [2, 11]: 96%
Range (adhered LAB per VEC) [2, 11]: 0-216 LAB per VEC
X ± 1 STD (logarithmic mean adherence of LAB per 50 VEC) [2, 11]: 16.4 ± 4.0
% VEC ADH [2, 12]: 100%
Range (adhered LAB per VEC) [2, 12]: 1-122 LAB per VEC
X ± 1 STD (logarithmic mean adherence of LAB per 50 VEC) [2, 12]: 14.1 ± 2.3
Overall Averages # LAB/VEC [2, 13]: 22.1 LAB/VEC
Overall Averages % Adherence [2, 13]: 77.6%
Range (adhered LAB per VEC) [2, 14]: 14-200 LAB per VEC
X ± 1 STD (logarithmic mean adherence of LAB per 50 VEC) [2, 14]: 96.1 ± 2.3
% VEC ADH [2, 15]: 100%
X ± 1 STD (logarithmic mean adherence of LAB per 50 VEC) [2, 15]: 58.9 ± 2.1
% VEC ADH [2, 16]: 100%
X ± 1 STD (logarithmic mean adherence of LAB per 50 VEC) [2, 16]: 47.3 ± 2.5
% VEC ADH [2, 17]: 100%
X ± 1 STD (logarithmic mean adherence of LAB per 50 VEC) [2, 17]: 19.4 ± 3.9
% VEC ADH [2, 18]: 100%
X ± 1 STD (logarithmic mean adherence of LAB per 50 VEC) [2, 18]: 21.4 ± 2.5
% VEC ADH [2, 19]: 38%
Range (adhered LAB per VEC) [2, 19]: 0-11 LAB per VEC
X ± 1 STD (logarithmic mean adherence of LAB per 50 VEC) [2, 19]: 1.9 ± 2.1
% VEC ADH [2, 20]: 200%
X ± 1 STD (logarithmic mean adherence of LAB per 50 VEC) [2, 20]: 60.9 ± 2.1
Overall Averages # LAB/VEC [2, 21]: 43.7 LAB/VEC
Overall Averages % Adherence [2, 21]: 91.1%
% VEC ADH [2, 22]: 46%
X ± 1 STD (logarithmic mean adherence of LAB per 50 VEC) [2, 22]: 6.4 ± 3.9
% VEC ADH [2, 23]: 38%
X ± 1 STD (logarithmic mean adherence of LAB per 50 VEC) [2, 23]: 3.1 ± 3.2
% VEC ADH [2, 24]: 98%
X ± 1 STD (logarithmic mean adherence of LAB per 50 VEC) [2, 24]: 10.9 ± 3.6
% VEC ADH [2, 25]: 72%
Range (adhered LAB per VEC) [2, 25]: 0-178 LAB per VEC
X ± 1 STD (logarithmic mean adherence of LAB per 50 VEC) [2, 25]: 7.1 ± 3.5
% VEC ADH [2, 26]: 99%
Range (adhered LAB per VEC) [2, 26]: 0-56 LAB per VEC
X ± 1 STD (logarithmic mean adherence of LAB per 50 VEC) [2, 26]: 6.5 ± 3.0
% VEC ADH [2, 27]: 60%
X ± 1 STD (logarithmic mean adherence of LAB per 50 VEC) [2, 27]: 7.3 ± 4.7
% VEC ADH [2, 28]: 100%
Range (adhered LAB per VEC) [2, 28]: 1-96 LAB per VEC
X ± 1 STD (logarithmic mean adherence of LAB per 50 VEC) [2, 28]: 5.7 ± 2.8
% VEC ADH [2, 29]: 92%
Range (adhered LAB per VEC) [2, 29]: 0-96 LAB per VEC
X ± 1 STD (logarithmic mean adherence of LAB per 50 VEC) [2, 29]: 7.8 ± 3.1
% VEC ADH [2, 30]: 80%
X ± 1 STD (logarithmic mean adherence of LAB per 50 VEC) [2, 30]: 6.9 ± 3.3
% VEC ADH [2, 31]: 100%
Range (adhered LAB per VEC) [2, 31]: 1-66 LAB per VEC
X ± 1 STD (logarithmic mean adherence of LAB per 50 VEC) [2, 31]: 15.9 ± 3.1
Overall Averages # LAB/VEC [2, 32]: 7.76 LAB/VEC
Overall Averages % Adherence [2, 32]: 78.4%
average adherence value ([2]; cells stored at refrigerated temperatures): 24.3 cells/VEC
adherence of inactive (preserved state) cells compared with metabolically active cells ([2]; frozen VECs, McIlvaines Buffer pH 4.5): equally well or better
average adherence value ([2]; room temperature stored cells): 21.9 cells/VEC
percent VEC cohesion value, average ([2]; stored at refrigerated temperature): 97.75%
percent VEC cohesion value, average ([2]; stored at room temperature): 97%
women with normal vaginal flora remaining colonized (women; after one month, gelatin capsule inserted into the vagina): greater than 80%
side effects associated with use (women; over fifty women in clinical trials): None of the women who received the suppository had any side effects
